{
  "source": "patent US5210215A",
  "about": "“Tryptophane and 3-indolepyruvic acid, methods of production therefor” (Polifarma S.p.A., priority 1989, dated 1993)",
  "data": [
    {"system": "formation of free radicals from biological membrane undergoing oxidative stress (MDA formation)", "assay": "Formation of malonodialdehyde (MDA) test: antagonism of free radical formation from biological membrane undergoing oxidative stress", "type": "biochemical", "conditions": "in vitro; IC50 = dose of compound necessary to reduce by 50% the harmful effect", "protocol": "For the first experiment was chosen the test on formation of malonodialdehyde (MDA). Briefly, the capacity was tested of the above compounds to antagonize the formation of free radicals from biological membrane undergoing oxidative stress.\n(§1) of compound necessary to reduce by 50% the harmful effect to be added to the in vitro tests or to be administered to mice.", "units": {"IC50": "µM"}, "values": [
      {"smiles": "NC(Cc1c[nH]c2cc(Cl)ccc12)C(=O)O", "note": "(racemic) [6-Cl-TRP, 6-chloro-DL-tryptophan]", "IC50": 1000},
      {"smiles": "O=C(O)C(=O)Cc1c[nH]c2cccc(Cl)c12", "note": "[4-Cl-IPA, 4-chloro-indole-3-yl-pyruvic]", "IC50": 1000},
      {"smiles": "O=C(O)C(=O)Cc1c[nH]c2ccc(Cl)cc12", "note": "[5-Cl-IPA, 5-chloro-indole-3-yl-pyruvic]", "IC50": 500},
      {"smiles": "O=C(O)C(=O)Cc1c[nH]c2cc(Br)ccc12", "note": "[6-Br-IPA]", "IC50": 50},
      {"smiles": "O=C(O)C(=O)Cc1c[nH]c2cc(Cl)ccc12", "note": "[6-Cl-IPA, 6-chloro-indole-3-yl-pyruvic acid]", "IC50": 100},
      {"smiles": "Cc1ccc2c(CC(=O)C(=O)O)c[nH]c2c1", "note": "[6-Me-IPA, 6-methyl-indole-3-yl-pyruvic]", "IC50": 60},
      {"smiles": "O=C(O)C(=O)Cc1c[nH]c2cc(O)ccc12", "note": "[6-OH-IPA]", "IC50": 500},
      {"smiles": "COc1ccc2c(CC(=O)C(=O)O)c[nH]c2c1", "note": "[6-OMe-IPA]", "IC50": 100},
      {"smiles": "O=C(O)C(=O)Cc1c[nH]c2c(Cl)cccc12", "note": "[7-Cl-IPA]", "IC50": 400},
      {"smiles": "O=C(O)C(=O)Cc1c[nH]c2ccccc12", "note": "[IPA, 3-indolepyruvic acid]", "IC50": 10}
    ]},
    {"system": "convulsions and death induced by NMDA (N-methyl-D-aspartic acid)", "assay": "Antagonism of convulsions and death induced by NMDA (N-methyl-D-aspartic acid)", "type": "in vivo", "conditions": "Mus musculus; ip, mice; convulsions; IC50 = dose necessary to reduce by 50% the harmful effect; read-out: CONVULSIONS from MDA IC50", "protocol": "(§2) For the second experiment, on the contrary, the capacity of the compounds to antagonize the convulsions and death induced by NMDA (N-methyl-D-aspartic acid), an excitatory amino acid, was evaluated.\nas §1", "units": {"ED50": "mg/kg"}, "values": [
      {"smiles": "NC(Cc1c[nH]c2cc(Cl)ccc12)C(=O)O", "note": "(racemic) [6-Cl-TRP, 6-chloro-DL-tryptophan]", "ED50": 1000},
      {"smiles": "O=C(O)C(=O)Cc1c[nH]c2cccc(Cl)c12", "note": "[4-Cl-IPA, 4-chloro-indole-3-yl-pyruvic]", "ED50": 1000},
      {"smiles": "O=C(O)C(=O)Cc1c[nH]c2ccc(Cl)cc12", "note": "[5-Cl-IPA, 5-chloro-indole-3-yl-pyruvic]", "ED50": 600},
      {"smiles": "O=C(O)C(=O)Cc1c[nH]c2cc(Br)ccc12", "note": "[6-Br-IPA]", "ED50": 100},
      {"smiles": "O=C(O)C(=O)Cc1c[nH]c2cc(Cl)ccc12", "note": "[6-Cl-IPA, 6-chloro-indole-3-yl-pyruvic acid]", "ED50": 20},
      {"smiles": "Cc1ccc2c(CC(=O)C(=O)O)c[nH]c2c1", "note": "[6-Me-IPA, 6-methyl-indole-3-yl-pyruvic]", "ED50": 200},
      {"smiles": "O=C(O)C(=O)Cc1c[nH]c2cc(O)ccc12", "note": "[6-OH-IPA]", "ED50": 800},
      {"smiles": "COc1ccc2c(CC(=O)C(=O)O)c[nH]c2c1", "note": "[6-OMe-IPA]", "ED50": 200},
      {"smiles": "O=C(O)C(=O)Cc1c[nH]c2c(Cl)cccc12", "note": "[7-Cl-IPA]", "ED50": 1000},
      {"smiles": "O=C(O)C(=O)Cc1c[nH]c2ccccc12", "note": "[IPA, 3-indolepyruvic acid]", "ED50": 200}
    ]},
    {"system": "convulsions and death induced by NMDA (N-methyl-D-aspartic acid)", "assay": "Antagonism of convulsions and death induced by NMDA (N-methyl-D-aspartic acid)", "type": "in vivo", "conditions": "Mus musculus; ip, mice; death; IC50 = dose necessary to reduce by 50% the harmful effect; read-out: DEATH from MDA IC50", "protocol": "as §2, §1", "units": {"ED50": "mg/kg"}, "values": [
      {"smiles": "NC(Cc1c[nH]c2cc(Cl)ccc12)C(=O)O", "note": "(racemic) [6-Cl-TRP, 6-chloro-DL-tryptophan]", "ED50": 200},
      {"smiles": "O=C(O)C(=O)Cc1c[nH]c2cccc(Cl)c12", "note": "[4-Cl-IPA, 4-chloro-indole-3-yl-pyruvic]", "ED50": 200},
      {"smiles": "O=C(O)C(=O)Cc1c[nH]c2ccc(Cl)cc12", "note": "[5-Cl-IPA, 5-chloro-indole-3-yl-pyruvic]", "ED50": 200},
      {"smiles": "O=C(O)C(=O)Cc1c[nH]c2cc(Br)ccc12", "note": "[6-Br-IPA]", "ED50": 20},
      {"smiles": "O=C(O)C(=O)Cc1c[nH]c2cc(Cl)ccc12", "note": "[6-Cl-IPA, 6-chloro-indole-3-yl-pyruvic acid]", "ED50": 10},
      {"smiles": "Cc1ccc2c(CC(=O)C(=O)O)c[nH]c2c1", "note": "[6-Me-IPA, 6-methyl-indole-3-yl-pyruvic]", "ED50": 100},
      {"smiles": "O=C(O)C(=O)Cc1c[nH]c2cc(O)ccc12", "note": "[6-OH-IPA]", "ED50": 200},
      {"smiles": "COc1ccc2c(CC(=O)C(=O)O)c[nH]c2c1", "note": "[6-OMe-IPA]", "ED50": 100},
      {"smiles": "O=C(O)C(=O)Cc1c[nH]c2c(Cl)cccc12", "note": "[7-Cl-IPA]", "ED50": 200},
      {"smiles": "O=C(O)C(=O)Cc1c[nH]c2ccccc12", "note": "[IPA, 3-indolepyruvic acid]", "ED50": 50}
    ]}
  ]
}
